COC(=O)c1cccc(NC(=O)Nc2nnc(-c3cc(Cl)cc(Cl)c3O)s2)c1 [Example 3, 3-{3-[5-(3,5-Dichloro-2-hydroxy-phenyl)-[1,3,4]thiadiazol-2-yl]-ureido}-benzoic Acid Methyl Ester]
melting point: 305 °C

COC(=O)c1ccc(NC(=O)Nc2nnc(-c3cc(Cl)cc(Cl)c3O)s2)cc1 [Example 4, 4-{3-[5-(3,5-Dichloro-2-hydroxy-phenyl)-[1,3,4]thiadiazol-2-yl]-ureido}-benzoic Acid Methyl Ester]
melting point: 330 °C

Source: patent US20050124664A1, “Urea thiadiazole inhibitors of plasminogen activator inhibior-1” (priority 2003, published 2005)
